Data reported in publication PMC6150198, “Functional Characterization of a Hydroxyacid/Alcohol Hydroxycinnamoyl Transferase Produced by the Liverwort Marchantia emarginata” (Molecules : A Journal of Synthetic Chemistry and Natural …, 2017).

System: T1, MeHFT
T1 construct: ~71 kDa on gel), E. coli BL21(DE3), Ni-NTA; primers encode N-terminus MGAEEV and C-terminus EEAIKL; cDNA 1413 nt from transcriptome SRP078649
Assay: HPLC of alkyl ferulate product, UV […] nm, Michaelis-Menten fit
Assay type: biochemical, Marchantia emarginata
Details: 0.1 M Tris-HCl pH 7.5, 40 °C, 10 min

Km (acyl acceptor varied, 0.1 mM feruloyl-CoA) | Km (acyl donor varied, 0.1 mM 1-decanol) | SMILES
65.5 ± 11.2 µM |  | CCCCCCCCCCO [1-Decanol]
 | 79.4 ± 10.9 µM | COc1cc(/C=C/C(=O)SCCNC(=O)CCNC(=O)[C@H](O)C(C)(C)COP(=O)(O)OP(=O)(O)OC[C@H]2O[C@@H](n3cnc4c(N)ncnc43)[C@H](O)[C@@H]2OP(=O)(O)O)ccc1O [Feruloyl-CoA]
